# Literature values in patent US20200237731A1, “USE OF CLOXACILLIN TO INHIBIT/PREVENT BIOFILM FORMATION” (priority 2017, published 2020).
# Tests used:
# S. aureus strain USA 300 = settings: sub-MIC doses; Mlynek et al., 2016; cited from earlier work
# [1] = tested on: biofilm forming Staphylococcus aureus; settings: compounds tested individually; Singh and Mishra, 2012; cited from earlier work
# Clostridium difficile = settings: Vuotto et al., 2016; cited from earlier work
# S. aureus = settings: sub-MIC doses; Mirani et al., 2011; cited from earlier work
# [2] = tested on: clinical isolates of S. aureus; settings: in vitro; Tunney et al., 2007; cited from earlier work
molecule,measurement,setting,value
CC1(C)S[C@@H]2[C@H](NC(=O)[C@H](N)c3ccc(O)cc3)C(=O)N2[C@H]1C(=O)O [amoxicillin],attachment of S. aureus strain USA 300,S. aureus strain USA 300,induces attachment
CC1(C)S[C@@H]2[C@H](NC(=O)[C@H](N)c3ccccc3)C(=O)N2[C@H]1C(=O)O [ampicillin],preventive action against biofilm formation,[1],not sufficiently active
Cc1ncc([N+](=O)[O-])n1CCO [metronidazole],biofilm formation by Clostridium difficile,Clostridium difficile,increases biofilm formation
Cc1onc(-c2ccccc2)c1C(=O)N[C@@H]1C(=O)N2[C@@H]1SC(C)(C)[C@@H]2C(=O)O [oxacillin],biofilm formation by S. aureus,S. aureus,induces biofilm formation
CN[C@H](CC(C)C)C(=O)N[C@H]1C(=O)N[C@@H](CC(N)=O)C(=O)N[C@H]2C(=O)N[C@H]3C(=O)N[C@H](C(=O)N[C@H](C(=O)O)c4cc(O)cc(O)c4-c4cc3ccc4O)[C@H](O)c3ccc(c(Cl)c3)Oc3cc2cc(c3O[C@@H]2O[C@H](CO)[C@@H](O)[C@H](O)[C@H]2O[C@H]2C[C@](C)(N)[C@H](O)[C@H](C)O2)Oc2ccc(cc2Cl)[C@H]1O [vancomycin],biofilm formation by S. aureus,S. aureus,induces biofilm formation
gentamicin,effect of treatment of bone cement on biofilm formation,[2],ineffectiveness
penicillin,preventive action against biofilm formation,[1],not sufficiently active
